# Data from patent US12559474B2, “Triazine derivatives having virus replication inhibitory activity and pharmaceutical composition comprising the same” (priority 2021, dated 2026).
# pEC50, pIC50: −log10 of the molar value. Read-outs that look alike come from different tables or passages of the source.
# Experiments:
# SARS-CoV-2 = test: microbe, parasite or virus in culture; type: cell-based; conditions: Severe acute respiratory syndrome coronavirus 2, VeroE6/TMPRSS2, 72 h, 50% SARS-CoV-2 infected cell death inhibitory concentration, VeroE6/TMPRSS2 cells, 3 days culture
# SARS-CoV-2 3CL protease = SARS-CoV-2 3CL protease (Severe acute respiratory syndrome coronavirus 2, UniProt P0DTD1); test: biochemical; conditions: 50% SARS-CoV-2 3CL protease inhibitory concentration, read-out: IC50
SMILES,pEC50 (SARS-CoV-2; class symbols),pIC50 (SARS-CoV-2 3CL protease; given as class symbols),pEC50 (SARS-CoV-2; CellTiter-Glo 2.0),pIC50 (SARS-CoV-2 3CL protease; RapidFire MS)
Cc1cncc(-n2c(=O)nc(Nc3cc4cn(C)nc4cc3Cl)n(Cc3cc(F)c(F)cc3Br)c2=O)c1 [II-0404],> 6.00,> 7.00,,
Cn1cnc(Cn2c(=O)nc(Nc3cc4cn(C)nc4cc3Cl)n(Cc3cc(F)c(F)cc3Cl)c2=O)n1 [II-0405],> 6.00,> 7.00,,
Cc1cc(F)c(F)cc1Cn1c(Nc2cc3cn(C)nc3cc2Cl)nc(=O)n(Cc2ncn(C)n2)c1=O [II-0406],> 6.00,> 7.00,,
Cc1cncc(-n2c(=O)nc(Nc3cc4c(cc3Cl)nc3n4CCN3)n(Cc3ccc(F)c(C#N)c3)c2=O)c1 [II-0407],,,4.82,8.42
N#CC1(Cn2cc3cc(Nc4nc(=O)n(Cc5ccc[nH]c5=O)c(=O)n4Cc4cc(F)c(F)c(F)c4)c(Cl)cc3n2)CC1 [II-0412],5.00 to 6.00,> 7.00,,
CC(C)Nc1nc2cc(Cl)c(Nc3nc(=O)n(Cc4ccc[nH]c4=O)c(=O)n3Cc3cc(F)c(F)c(F)c3)cc2s1 [II-0413],5.00 to 6.00,> 7.00,,
CNc1nc2cc(Cl)c(Nc3nc(=O)n(-c4cncc(C)c4)c(=O)n3Cc3ccc(F)c(C#N)c3)cc2n1C [II-0414],5.00 to 6.00,> 7.00,,
N#Cc1cc(Cn2c(Nc3ccc4nn(CC(F)F)cc4c3)nc(=O)n(-c3cncc(Cl)c3)c2=O)ccc1F [II-0415],,,6.06,7.82
Cc1cncc(-n2c(=O)nc(Nc3cc4sc(C)nc4cc3F)n(Cc3ccc(F)c(C#N)c3)c2=O)c1 [II-0416],5.00 to 6.00,> 7.00,,
Cc1nc2cc(Br)c(Nc3nc(=O)n(Cc4ncn(C)n4)c(=O)n3Cc3cc(F)c(F)cc3F)cc2s1 [II-0417],5.00 to 6.00,> 7.00,,
COc1nc2cc(Cl)c(Nc3nc(=O)n(Cc4ccc[nH]c4=O)c(=O)n3Cc3cc(F)c(F)c(F)c3)cc2s1 [II-0418],,,5.20,6.96
CNc1nc2cc(F)c(Nc3nc(=O)n(-c4cncc(C)c4)c(=O)n3Cc3cc(C#N)ccc3C)cc2s1 [II-0419],> 6.00,> 7.00,,
CNc1nc2ccc(Nc3nc(=O)n(-c4cncc(C)c4)c(=O)n3Cc3cc(C#N)c(F)cc3C)cc2s1 [II-0420],> 6.00,> 7.00,,
CNc1nc2ccc(Nc3nc(=O)n(-c4cncc(C)c4)c(=O)n3Cc3cc(C#N)c(F)cc3Cl)cc2s1 [II-0421],> 6.00,> 7.00,,
Cc1cncc(-n2c(=O)nc(Nc3ccc4nn(C)cc4c3)n(Cc3cc(C#N)ccc3Cl)c2=O)c1 [II-0422],,,6.54,8.19
Cc1cncc(-n2c(=O)nc(Nc3cc4sc(NCC(F)F)nc4cc3F)n(Cc3cc(F)c(F)c(C#N)c3)c2=O)c1 [II-0423],5.00 to 6.00,> 7.00,,
Cc1cncc(-n2c(=O)nc(Nc3cc4sc(NCC(F)F)nc4cc3F)n(Cc3ccc(F)c(C#N)c3)c2=O)c1 [II-0424],5.00 to 6.00,> 7.00,,
Cc1cnc(Cn2c(=O)nc(Nc3cc4cn(C)nc4cc3Cl)n(Cc3cc(F)c(F)cc3F)c2=O)nc1 [II-0425],,,5.23,6.59
Cc1cncc(-n2c(=O)nc(Nc3cc4cn(C)nc4cc3Cl)n(Cc3cc(Cl)ccc3C#N)c2=O)c1 [II-0426],> 6.00,> 7.00,,
Cn1cnc(Cn2c(=O)cc(Nc3cc4cn(CC(F)F)nc4cc3Cl)n(Cc3cc(F)c(F)c(F)c3)c2=O)n1 [II-0429],5.00 to 6.00,> 7.00,,

SMILES,pEC50 (SARS-CoV-2; class symbols),pIC50 (SARS-CoV-2 3CL protease; given as class symbols),pEC50 (SARS-CoV-2; CellTiter-Glo 2.0),pIC50 (SARS-CoV-2 3CL protease; RapidFire MS)
Cn1cnc(Cn2c(=O)cc(Nc3cc4cn(C)nc4cc3Cl)n(Cc3cc(F)c(F)c(F)c3)c2=O)n1 [II-0430],5.00 to 6.00,> 7.00,,
Cn1cnc(Cn2c(=O)cc(Nc3cc4cn(C(F)F)nc4cc3Cl)n(Cc3cc(F)c(F)c(F)c3)c2=O)n1 [II-0431],> 6.00,> 7.00,,
Cn1cnc(Cn2c(=O)cc(Nc3cc4cn(C(F)F)nc4cc3Cl)n(Cc3ccc(F)c(C#N)c3)c2=O)n1 [II-0433],> 6.00,> 7.00,,
Cc1cncc(-n2c(=O)nc(Nc3cc4cn(C)nc4cc3Cl)n(Cc3cc(C#N)c(F)cc3Cc3cccc(Cl)c3)c2=O)c1 [II-0434],> 6.00,> 7.00,,
Cc1cncc(-n2c(=O)nc(Nc3cc4cn(C)nc4cc3Cl)n(Cc3cc(F)c(F)cc3OCC(F)(F)F)c2=O)c1 [II-0435],5.00 to 6.00,> 7.00,,
Cc1cncc(-n2c(=O)nc(Nc3cc4c(C)n(C)nc4cc3Cl)n(Cc3ccc(F)c(C#N)c3)c2=O)c1 [II-0436],> 6.00,> 7.00,,
Cc1c2cc(Nc3nc(=O)n(Cc4ncn(C)n4)c(=O)n3Cc3cc(Cl)c(F)cc3F)c(Cl)cc2nn1C [II-0437],> 6.00,> 7.00,,
Cc1c2cc(Nc3nc(=O)n(Cc4ncn(C)n4)c(=O)n3Cc3cc(F)c(F)c(Cl)c3)c(Cl)cc2nn1C [II-0438],5.00 to 6.00,> 7.00,,
Cc1cncc(-n2c(=O)nc(Nc3cc4cn(CC(F)F)nc4cc3F)n(Cc3ccc(F)c(C#N)c3)c2=O)c1 [II-0439],> 6.00,> 7.00,,
CNC(=O)Cn1cc2cc(Nc3nc(=O)n(-c4cncc(C)c4)c(=O)n3Cc3cc(F)c(F)c(F)c3)c(Cl)cc2n1 [II-0440],5.00 to 6.00,> 7.00,,
Cc1cncc(-n2c(=O)nc(Nc3cc4cn(C)nc4cc3Cl)n(Cc3ccc(F)c(Cl)c3)c2=O)c1 [II-0442],> 6.00,> 7.00,,
Cn1cnc(Cn2c(=O)nc(Nc3cc4c(C5CC5)n(C)nc4cc3Cl)n(Cc3cc(F)c(F)cc3F)c2=O)n1 [II-0446],5.00 to 6.00,> 7.00,,
Cn1cnc(Cn2c(=O)nc(Nc3cc4cn(C)nc4cc3Br)n(Cc3cc(F)c(F)c(F)c3)c2=O)n1 [II-0448],> 6.00,> 7.00,,
Cc1cncc(-n2c(=O)nc(Nc3cc4c(C)n(C)nc4cc3Cl)n(Cc3cc(F)c(F)c(F)c3)c2=O)c1 [II-0449],> 6.00,> 7.00,,
Cc1c2cc(Nc3nc(=O)n(Cc4ncn(C)n4)c(=O)n3Cc3cc(F)c(F)cc3F)c(Cl)cc2nn1C [II-0450],5.00 to 6.00,> 7.00,,
Cc1c2cc(Nc3nc(=O)n(Cc4ncn(C)n4)c(=O)n3Cc3cc(F)c(F)c(F)c3)c(Cl)cc2nn1C [II-0452],5.00 to 6.00,> 7.00,,
Cn1cnc(Cn2c(=O)nc(Nc3cc4c(N5CCCC5)n(C)nc4cc3Cl)n(Cc3cc(F)c(F)c(F)c3)c2=O)n1 [II-0453],5.00 to 6.00,> 7.00,,
COc1c2cc(Nc3nc(=O)n(Cc4ncn(C)n4)c(=O)n3Cc3cc(F)c(F)cc3F)c(Cl)cc2nn1C [II-0454],5.00 to 6.00,> 7.00,,
Cn1cnc(Cn2c(=O)nc(Nc3cc4c(F)n(C)nc4cc3Cl)n(Cc3cc(F)c(F)cc3F)c2=O)n1 [II-0455],,,6.12,7.72
Cc1cncc(-n2c(=O)nc(Nc3c(Cl)cc4nn(C)cc4c3F)n(Cc3ccc(F)c(C#N)c3)c2=O)c1 [II-0458],> 6.00,> 7.00,,

SMILES,pEC50 (SARS-CoV-2; class symbols),pIC50 (SARS-CoV-2 3CL protease; given as class symbols),pEC50 (SARS-CoV-2; CellTiter-Glo 2.0),pIC50 (SARS-CoV-2 3CL protease; RapidFire MS)
Cn1cnc(Cn2c(=O)nc(Nc3cc4cn(CC(F)F)nc4cc3F)n(Cc3cc(Cl)c(F)cc3F)c2=O)n1 [II-0459],5.00 to 6.00,> 7.00,,
O=c1[nH]cccc1Cn1c(=O)nc(NC23CC(Nc4ncc(F)cn4)(C2)C3)n(Cc2cc(F)c(F)c(F)c2)c1=O [II-0460],,,4.72,7.66
Cn1cnc(Cn2c(=O)nc(Nc3cc4c(-n5cccn5)n(C)nc4cc3Cl)n(Cc3cc(F)c(F)cc3F)c2=O)n1 [II-0461],5.00 to 6.00,> 7.00,,
Cn1nc2cc(Cl)c(Nc3nc(=O)n(-c4cncc5ccccc45)c(=O)n3Cc3cc(F)c(F)c(F)c3)cc2c1F [II-0462],> 6.00,> 7.00,,
Cc1cncc(-n2c(=O)nc(Nc3cc4cccnc4cc3Cl)n(Cc3ccc(F)c(C#N)c3)c2=O)c1 [II-0463],> 6.00,> 7.00,,
Cc1cncc(-n2c(=O)nc(Nc3cc4c(F)n(C)nc4cc3Cl)n(Cc3cc(F)c(F)c(F)c3)c2=O)c1 [II-0464],> 6.00,> 7.00,,
Cn1cnc(Cn2c(=O)nc(Nc3cc4cn(CC(F)F)nc4cc3F)n(Cc3cc(F)c(F)c(Cl)c3)c2=O)n1 [II-0466],5.00 to 6.00,> 7.00,,
Cn1cnc(Cn2c(=O)nc(Nc3cc4c(C(F)(F)F)n(C)nc4cc3Cl)n(Cc3cc(F)c(F)cc3F)c2=O)n1 [II-0468],5.00 to 6.00,> 7.00,,
Cc1cncc(-n2c(=O)nc(Nc3ccc4nn(C)cc4c3)n(Cc3ccc(F)c(Cl)c3)c2=O)c1 [II-0469],> 6.00,> 7.00,,
Cn1cc2cc(Nc3nc(=O)n(-c4cncc(Cl)c4)c(=O)n3Cc3cc(F)c(F)cc3F)c(F)cc2n1 [II-0475],5.00 to 6.00,> 7.00,,
Cc1cncc(-n2c(=O)nc(Nc3cc4ccnn4cc3Cl)n(Cc3ccc(F)c(C#N)c3)c2=O)c1 [II-0477],5.00 to 6.00,> 7.00,,
Cc1cncc(-n2c(=O)nc(Nc3cc4c(cc3Cl)nc(N(C)C)n4C)n(Cc3cc(F)c(F)c(F)c3)c2=O)c1 [II-0478],5.00 to 6.00,> 7.00,,
COc1cc(Cl)c(Nc2nc(=O)n(-c3cncc(C)c3)c(=O)n2Cc2ccc(F)c(C#N)c2)cn1 [II-0479],5.00 to 6.00,> 7.00,,
CC(C)(Nc1nc(=O)n(Cc2ccc[nH]c2=O)c(=O)n1Cc1cc(F)c(F)c(F)c1)c1ccccc1F [II-0482],,,4.35,6.39
Cc1cncc(-n2c(=O)nc(N(C)c3cc4cn(C)nc4cc3Cl)n(Cc3cc(F)c(F)c(F)c3)c2=O)c1 [II-0483],,,4.68,5.74
O=c1[nH]cccc1Cn1c(=O)nc(NC2(c3ccccc3F)COC2)n(Cc2cc(F)c(F)c(F)c2)c1=O [II-0484],,,4.85,5.47
Cn1cc2cc(Nc3nc(=O)n(-c4cncc(C#N)c4)c(=O)n3Cc3cc(Cl)c(F)cc3F)c(Cl)cc2n1 [II-0485],> 6.00,> 7.00,,
Cn1cc2cc(Nc3nc(=O)n(-c4cncc(C#N)c4)c(=O)n3Cc3ccc(F)c(C#N)c3)c(Cl)cc2n1 [II-0486],5.00 to 6.00,> 7.00,,
